Source: paper PMC11352258, “The Influence of Betulin and Its Derivatives on Selected Colorectal Cancer Cell Lines’ Viability and Their Antioxidant Systems” (Cells, 2024)
“And” between values parts separate entries of the source, which are not always exact repeats. Equal entries are not always repeated.

What was measured:
SW1116 cells = assay: MTT cytotoxicity assay, SW1116; conditions: for IC50: Homo sapiens, SW 1116, 24 h, read-out: IC50 value
Description: (§1) Six colorectal cancer cell lines, RKO, HT29, DLD-1, HCT116, Caco2 and SW1116 (CRL-2577, HTB-38, CCL-221, CCL-247, HTB-37, CCL-233; ATCC, Manassas, VA, USA, respectively, for CRC lines), and one normal cell line, CCD-841CoN (CRL-1790, ATCC, USA), were routinely cultured at 37 °C in a 5% CO2 incubator (Direct Heat CO2; Thermo Scientific, Waltham, MA, USA) in cell line-appropriate culture medium according to the manufacturer’s recommendations. Eagle’s minimum essential medium (EMEM) was used to culture RKO, Caco2 and CCD-841CoN lines, while McCoy’s 5A medium was used for HT29 and HCT116 lines. DLD-1 cells were grown in RPMI-1640 medium, whereas SW1116 cells were maintained in Leibovitz’s L-15 medium. All culture media were supplemented with 10% fetal bovine serum (EuroClone, Milan, Italy), and gentamycin at the concentration […] (BioWhittaker, Lonza, Basel, Switzerland) was also applied to prevent culture contamination.
(§2) For this purpose, cells were exposed to the test compound for 24 h at concentrations of 0.1, 1, 10, 20, 50 and 100 μg/mL. Control cells were not treated with the compounds. MTT (0.25 mg/mL) was then added to the cultures and incubated for 3 h at 37 °C. After a time, the cells were washed with phosphate buffered saline (PBS), and next, formazan dye was dissolved in 100 μL of dimethyl sulfoxide (Sigma-Aldrich, St Louis, MO, USA). Absorbance was measured at 540 nm using a Wallac 1420 VICTOR microplate reader (PerkinElmer, Waltham, MA, USA).

[1] = tested on: colorectal cancer cell lines RKO, HT29, DLD-1, HCT116, Caco2 and SW1116; assay: MTT cytotoxicity assay, statements over all tested cell lines
Description: as §1, §2

Caco2 cells = assay: MTT cytotoxicity assay, Caco2; type: cell-based; conditions: Homo sapiens, Caco-2, 24 h, read-out: IC50 value
HCT116 cells = assay: MTT cytotoxicity assay, HCT116; type: cell-based; conditions: Homo sapiens, HCT-116, 24 h, read-out: IC50 value
Text: (§3) Control cells were not treated with the compounds.

RKO cells = assay: MTT cytotoxicity assay, RKO; conditions: Homo sapiens, 24 h, read-out: IC50 value
Description: as §1, §2

HT29 cells = assay: MTT cytotoxicity assay, HT29; type: cell-based; conditions: Homo sapiens, HT-29, 24 h, read-out: IC50 value
Text: as §3

DLD-1 cells = assay: MTT cytotoxicity assay, DLD-1; type: cell-based; conditions: Homo sapiens, DLD-1, 24 h, read-out: IC50 value
Text: as §3

CCD-841CoN cells = assay: cells; type: cell-based; conditions: Homo sapiens, CCD-841CoN, 24 h, read-out: IC50 value
Text: as §3

SMILES | IC50 (SW1116 cells) | cytotoxic effect compared with the other tested compounds ([1]; MTT, 24 h) | selectivity towards cancer cells ([1]; cancer lines vs normal cells) | change in cell viability ([1]; each of the tested cell lines, concentrations higher than 1 µg/mL) | IC50 (Caco2 cells) | IC50 (HCT116 cells) | IC50 (RKO cells) | IC50 (HT29 cells) | IC50 (DLD-1 cells) | sensitivity of cells to the compound (SW1116 cells; SW1116, 10 µg/mL, in comparison with other CRC lines and normal colonocytes) | IC50 (CCD-841CoN cells)
C#CC(=O)OC[C@]12CC[C@@H](/C(C)=C/P(=O)(OCC)OCC)C1C1CCC3[C@@]4(C)CC[C@H](O)C(C)(C)C4CC[C@@]3(C)[C@]1(C)CC2 (some centres unmarked) [ECH147, 29-diethoxyphosphoryl-28-propynylobetulin] | 5.21 µg/mL and 8.99 µM | strongest cytotoxic effect | does not show selectivity towards cancer cells | significant decrease in cell viability | 1.4 µg/mL and 2.43 µM | 3.24 µg/mL and 5.59 µM | 1.18 µg/mL and 2.04 µM | 0.63 µg/mL and 1.09 µM | 0.69 µg/mL and 1.19 µM |  | 
C=C(C)[C@@H]1CC[C@]2(COC(=O)c3cn(CP(=O)(OCC)OCC)nn3)CC[C@]3(C)C(CCC4[C@@]5(C)CC[C@H](O)C(C)(C)C5CC[C@]43C)C12 (some centres unmarked) [TR50] | 33.1 µg/mL and 48.1 µM |  |  |  | 13 µg/mL and 18.9 µM | 6.71 µg/mL and 9.76 µM | 4.33 µg/mL and 6.29 µM | 10.3 µg/mL and 14.9 µM | 7.87 µg/mL and 11.4 µM | lack of sensitivity | 18.3 µg/mL and 26.6 µM
